{"source": "patent US20220323429A1", "about": "“PIMAVANSERIN FOR TREATING NEURODEGENERATIVE DISEASES” (ACADIA Pharmaceuticals Inc., priority 2019, published 2022)", "key": {"[1]": {"test": "In-use Stability Assay (HPLC) of pimavanserin 34 mg capsule contents in liquid/soft food vehicles", "type": "physicochemical", "conditions": "for Assay: ambient; for Time 0 (%) assay: time 0, average (n=6) accuracy/recovery", "experimental": "(§1) Analytical HPLC Stability Study experiments (Example 1) were performed on Agilent 1200 Series, or equivalent; Waters XBridge C18 column, 5 μm 150×4.6 mm; mobile phase: Solvent A: 50 mM ammonium bicarbonate, pH 8.0; Solvent B: acetonitrile/methanol, 80:20 (v/v); Flow rate: 1 mL/min; Inj. Volume 20 μL; Autosampler Temp. 5° C.; column temperature: 40° C., detection UV at 210 nm; sample concentration (as free base) assay: 0.068 mg/mL, impurity: 0.68 mg/mL; standard concentration (as free base) 0.068 mg/mL; PLOQ Std. 0.05% of 0.68 mg/mL; SST solution, 1% of 0.68 mg/mL (impurities A, C, D, E, F, and G); diluent for standards 80/20 (v/v) ethanol/water; diluent for samples, ethanol; run time 40 min; gradient method: 0 min mobile phase A (90%) and mobile phase B (10%) to 30 min mobile phase A (0%), and mobile phase B (100%); then 30.1 min to 40 min mobile phase A (90%), mobile phase B (10%).\nThe stability of pimavanserin for administration via a nasogastric (NG) tube was assessed by sprinkling the content of one pimavanserin 34 mg capsule in water, applesauce, vanilla Ensure, and non-pulp orange juice. Samples were tested at time 0, 2, 4, and 24 hours after storage at ambient conditions. Samples were prepared in triplicate and average (n=6) accuracy/recovery results from the assay method were used at time 0.\nFor each sample, one capsule was weighed, and the content of the capsule dropped into a 500 mL volumetric flask containing the amount of vehicle specified in Table 1. The empty capsule shell was weighed and discarded. The flasks were gently swirled to ensure the capsule contents were visually incorporated with the vehicle. The flasks were kept at ambient temperature for each time point 2, 4, and 24 hours. Time 0 samples were processed immediately.\nAt the specified time point, a stir bar and approximately 450 mL of diluent were added to the flask. The samples were stirred vigorously for 2 hours, and then left on the bench overnight. The following day the flasks were sonicated for approximately 15-30 minutes. The stir bar was removed and rinsed carefully with diluent into the flask, and then the flask was diluted to volume with diluent and mixed well by inversion. An aliquot of each solution was centrifuged for 5 minutes at 10000 rpm. The supernatant was transferred to a HPLC vial and injected for analysis."}, "[2]": {"test": "Assay from diluted impurity samples (mass balance), in-use stability", "type": "physicochemical", "conditions": "for Assay (%) from diluted impurity sample: ambient; for Absolute Difference from Time 0 (%): diluted impurity sample", "experimental": "as §1\nFor each sample, one capsule was weighed, and the content of each capsule was dropped into a 50 mL volumetric flask and the empty capsule shell was weighed and discarded. The specified amount of each vehicle was added as specified in Table 3, below.\nThe flasks were gently swirled to ensure the capsule contents were visually incorporated with the vehicle. The flasks were kept on the bench at ambient temperature for each time point: 2, 4, and 24 hours. Time 0 samples were processed immediately. At the specified time point a stir bar and approximately 45 mL of diluent were added to the flask. The solution was stirred vigorously for 2 hours, and the flask was left on the bench overnight. The next day the flasks were sonicated for approximately 30 minutes. The stir bar was removed and rinsed carefully with diluent into the flask, and the flask was diluted to volume with diluent and mixed well by inversion. An aliquot of each solution was centrifuged for 5 minutes at 10000 rpm. The supernatant was transferred to a HPLC vial, and injected for analysis.\nSamples were prepared by transferring the stock volume using a volumetric pipet into a 20 mL volumetric flask, diluted to volume with diluent, and mixed well by inversion. An aliquot of each solution was centrifuged for 5 minutes at 10000 rpm. The supernatant was transferred to a HPLC vial and injected for analysis."}}, "data": [{"smiles": "CC(C)COc1ccc(CNC(=O)N(Cc2ccc(F)cc2)C2CCN(C)CC2)cc1", "note": "[Pimavanserin, N-(4-Fluorophenylmethyl)-N-(1-methylpiperidin-4-yl)-N′-(4-(2-methylpropyloxy)phenylmethyl)carbamide]", "values": [{"measurement": "Assay", "setting": "[1]; 34 mg capsule in Ensure 60 mL, T = 2 h", "result": 100.3, "unit": "%"}, {"measurement": "Assay", "setting": "[1]; 34 mg capsule in Ensure 60 mL, T = 4 h", "result": 100.7, "unit": "%"}, {"measurement": "Assay", "setting": "[1]; 34 mg capsule in Ensure 60 mL, T = 24 h", "result": 98.1, "unit": "%"}, {"measurement": "Assay", "setting": "[1]; 34 mg capsule in applesauce 40 g, T = 2 h", "result": 99.9, "unit": "%"}, {"measurement": "Assay", "setting": "[1]; 34 mg capsule in applesauce 40 g, T = 4 h", "result": 97.7, "unit": "%"}, {"measurement": "Assay", "setting": "[1]; 34 mg capsule in applesauce 40 g, T = 24 h", "result": 96.3, "unit": "%"}, {"measurement": "Assay", "setting": "[1]; 34 mg capsule in non-pulp orange juice 60 mL, T = 2 h", "result": 99.2, "unit": "%"}, {"measurement": "Assay", "setting": "[1]; 34 mg capsule in non-pulp orange juice 60 mL, T = 4 h", "result": 98.0, "unit": "%"}, {"measurement": "Assay", "setting": "[1]; 34 mg capsule in non-pulp orange juice 60 mL, T = 24 h", "result": 98.3, "unit": "%"}, {"measurement": "Assay", "setting": "[1]; 34 mg capsule in water 40 mL, T = 2 h", "result": 97.7, "unit": "%"}, {"measurement": "Assay", "setting": "[1]; 34 mg capsule in water 40 mL, T = 4 h", "result": 95.6, "unit": "%"}, {"measurement": "Assay", "setting": "[1]; 34 mg capsule in water 40 mL, T = 24 h", "result": 99.3, "unit": "%"}, {"measurement": "Absolute Difference from Time 0", "setting": "[1]; Ensure, T = 2 h", "result": 0.3, "unit": "%"}, {"measurement": "Absolute Difference from Time 0", "setting": "[1]; Ensure, T = 4 h", "result": 0.7, "unit": "%"}, {"measurement": "Absolute Difference from Time 0", "setting": "[1]; Ensure, T = 24 h", "result": 1.9, "unit": "%"}, {"measurement": "Absolute Difference from Time 0", "setting": "[1]; applesauce, T = 2 h", "result": 2.0, "unit": "%"}, {"measurement": "Absolute Difference from Time 0", "setting": "[1]; applesauce, T = 4 h", "result": 4.2, "unit": "%"}, {"measurement": "Absolute Difference from Time 0", "setting": "[1]; applesauce, T = 24 h", "result": 5.6, "unit": "%"}, {"measurement": "Time 0 (%) assay", "setting": "[1]; applesauce", "result": 101.9, "unit": "%"}, {"measurement": "Assay values difference from time 0", "setting": "[1]; individual capsules, up to 24 hours, all vehicles", "result": "≤ 5", "unit": "%"}, {"measurement": "Absolute Difference from Time 0", "setting": "[1]; orange juice, T = 2 h", "result": 1.1, "unit": "%"}, {"measurement": "Absolute Difference from Time 0", "setting": "[1]; orange juice, T = 4 h", "result": 2.3, "unit": "%"}, {"measurement": "Absolute Difference from Time 0", "setting": "[1]; orange juice, T = 24 h", "result": 2.0, "unit": "%"}, {"measurement": "Time 0 (%) assay", "setting": "[1]; orange juice", "result": 100.3, "unit": "%"}, {"measurement": "stability in all vehicles", "setting": "[1]; over 24 hours at ambient room temperature", "result": "acceptable"}, {"measurement": "Time 0 (%) assay", "setting": "[1]; vanilla Ensure", "result": 100.0, "unit": "%"}, {"measurement": "Absolute Difference from Time 0", "setting": "[1]; water, T = 2 h", "result": 1.2, "unit": "%"}, {"measurement": "Absolute Difference from Time 0", "setting": "[1]; water, T = 4 h", "result": 3.3, "unit": "%"}, {"measurement": "Absolute Difference from Time 0", "setting": "[1]; water, T = 24 h", "result": 0.4, "unit": "%"}, {"measurement": "Time 0 (%) assay", "setting": "[1]; water", "result": 98.9, "unit": "%"}, {"measurement": "Assay (%) from diluted impurity sample", "setting": "[2]; Ensure 5 mL, T = 0", "result": 97.1, "unit": "%"}, {"measurement": "Assay (%) from diluted impurity sample", "setting": "[2]; Ensure 5 mL, T = 2 h", "result": 94.6, "unit": "%"}, {"measurement": "Assay (%) from diluted impurity sample", "setting": "[2]; Ensure 5 mL, T = 4 h", "result": 97.9, "unit": "%"}, {"measurement": "Assay (%) from diluted impurity sample", "setting": "[2]; Ensure 5 mL, T = 24 h", "result": 97.3, "unit": "%"}, {"measurement": "Absolute Difference from Time 0 (%)", "setting": "[2]; Ensure, T = 0", "result": 2.9, "unit": "%"}, {"measurement": "Absolute Difference from Time 0 (%)", "setting": "[2]; Ensure, T = 2 h", "result": 5.4, "unit": "%"}, {"measurement": "Absolute Difference from Time 0 (%)", "setting": "[2]; Ensure, T = 4 h", "result": 2.1, "unit": "%"}, {"measurement": "Absolute Difference from Time 0 (%)", "setting": "[2]; Ensure, T = 24 h", "result": 2.7, "unit": "%"}, {"measurement": "Assay (%) from diluted impurity sample", "setting": "[2]; applesauce 5 g, T = 0", "result": 97.5, "unit": "%"}, {"measurement": "Assay (%) from diluted impurity sample", "setting": "[2]; applesauce 5 g, T = 2 h", "result": 99.4, "unit": "%"}, {"measurement": "Assay (%) from diluted impurity sample", "setting": "[2]; applesauce 5 g, T = 4 h", "result": 104.1, "unit": "%"}, {"measurement": "Assay (%) from diluted impurity sample", "setting": "[2]; applesauce 5 g, T = 24 h", "result": 99.5, "unit": "%"}, {"measurement": "Absolute Difference from Time 0 (%)", "setting": "[2]; applesauce, T = 0", "result": 4.4, "unit": "%"}, {"measurement": "Absolute Difference from Time 0 (%)", "setting": "[2]; applesauce, T = 2 h", "result": 2.5, "unit": "%"}, {"measurement": "Absolute Difference from Time 0 (%)", "setting": "[2]; applesauce, T = 4 h", "result": 2.2, "unit": "%"}, {"measurement": "Absolute Difference from Time 0 (%)", "setting": "[2]; applesauce, T = 24 h", "result": 2.4, "unit": "%"}, {"measurement": "assay results difference from time 0", "setting": "[2]; diluted impurity samples, all vehicles and times", "result": "≤ 5", "unit": "%"}, {"measurement": "Assay (%) from diluted impurity sample", "setting": "[2]; orange juice 5 mL, T = 0", "result": 97.7, "unit": "%"}, {"measurement": "Assay (%) from diluted impurity sample", "setting": "[2]; orange juice 5 mL, T = 2 h", "result": 97.5, "unit": "%"}, {"measurement": "Assay (%) from diluted impurity sample", "setting": "[2]; orange juice 5 mL, T = 4 h", "result": 96.4, "unit": "%"}, {"measurement": "Assay (%) from diluted impurity sample", "setting": "[2]; orange juice 5 mL, T = 24 h", "result": 99.2, "unit": "%"}, {"measurement": "Absolute Difference from Time 0 (%)", "setting": "[2]; orange juice, T = 0", "result": 2.6, "unit": "%"}, {"measurement": "Absolute Difference from Time 0 (%)", "setting": "[2]; orange juice, T = 2 h", "result": 2.8, "unit": "%"}, {"measurement": "Absolute Difference from Time 0 (%)", "setting": "[2]; orange juice, T = 4 h", "result": 3.9, "unit": "%"}, {"measurement": "Absolute Difference from Time 0 (%)", "setting": "[2]; orange juice, T = 24 h", "result": 1.1, "unit": "%"}, {"measurement": "Assay (%) from diluted impurity sample", "setting": "[2]; water 5 mL, T = 0", "result": 95.6, "unit": "%"}, {"measurement": "Assay (%) from diluted impurity sample", "setting": "[2]; water 5 mL, T = 2 h", "result": 98.2, "unit": "%"}, {"measurement": "Assay (%) from diluted impurity sample", "setting": "[2]; water 5 mL, T = 4 h", "result": 97.1, "unit": "%"}, {"measurement": "Assay (%) from diluted impurity sample", "setting": "[2]; water 5 mL, T = 24 h", "result": 97.5, "unit": "%"}, {"measurement": "Absolute Difference from Time 0 (%)", "setting": "[2]; water, T = 0", "result": 3.3, "unit": "%"}, {"measurement": "Absolute Difference from Time 0 (%)", "setting": "[2]; water, T = 2 h", "result": 0.7, "unit": "%"}, {"measurement": "Absolute Difference from Time 0 (%)", "setting": "[2]; water, T = 4 h", "result": 1.8, "unit": "%"}, {"measurement": "Absolute Difference from Time 0 (%)", "setting": "[2]; water, T = 24 h", "result": 1.4, "unit": "%"}]}]}
